Patent US10363251B2, “(+)-morphinans as antagonists of toll-like receptor 9 and therapeutic uses thereof” (Mallinckrodt LLC, priority 2009, dated 2019)

Tests used:
TLR2 = target: T1, TLR2 (Homo sapiens, UniProt O60603); experiment: TLR2 antagonist screening, NF-κB-inducible SEAP reporter in HEK293 cells; assay type: cell-based; conditions: 10 μM; stimulated with HKLM at 10^8 cell/ml
T1 construct: expressed in transfected cells; host or cells: HEK293
Procedure: (§1) Stimulation of TLRs 2, 3, 4, 5, 7, 8, and 9 was determined by assessing activation of the transcription factor NF-κB in HEK293 cells that were engineered to express the corresponding receptors. Assessment of TLR stimulation was based on the use of an NF-κB-inducible secreted alkaline phosphatase (SEAP) reporter system in which the SEAP reporter was under the control of a promoter inducible by NF-κB. Thus, the degree of activation of TLRs can be indirectly quantified spectrophotometrically by measuring the amount of the SEAP reporter that is produced.
(§2) The appropriate TLR-expressing cells were plated in Growth Medium in a 96-well plate (25,000-50,000 cells/well). The cells were stimulated with the appropriate positive control ligand or no ligand was added (negative control). The positive control ligands were: HKLM was used to stimulate TLR2; poly(I:C) was used to stimulate TLR3; LPS was used to stimulate TLR4; Flagellin was used to stimulate TLR5; CL097 was used to stimulate TLR7; CL075 was used to stimulate TLR8; CpG oligodeoxynucleotide (ODN) 2006 was used to stimulate TLR9. To test whether (+)-morphinans could block that activation of the TLR, the cells were pretreated with an antagonist for 30 minutes prior to addition of the positive control ligand. For this, 20 μL of the stock test compound solution (100 μM in H2O) was added to give a total volume of 200 μL. […] After a 16-20 hr incubation period at 37° C. in a CO2 incubator, 20 μL of the cell culture supernatant was added to 180 μL of QUANTI-Blue™ Media (InvivoGen, San Diego, Calif.), and the resulting solutions were incubated at 37° C. for an additional 1-3 hours according to the manufacturer's instructions. The OD's of the samples were then read at 650 nm on a Beckman Coulter AD 340C Absorbance Detector.

TLR3 = target: T2, TLR3 (Homo sapiens, UniProt O15455); experiment: TLR3 antagonist screening, NF-κB-inducible SEAP reporter in HEK293 cells; assay type: cell-based; conditions: 10 μM; stimulated with poly(I:C) at 1 μg/ml
T2 construct: expressed in transfected cells; host or cells: HEK293
T2 sequence (O15455 24-904, species assumed): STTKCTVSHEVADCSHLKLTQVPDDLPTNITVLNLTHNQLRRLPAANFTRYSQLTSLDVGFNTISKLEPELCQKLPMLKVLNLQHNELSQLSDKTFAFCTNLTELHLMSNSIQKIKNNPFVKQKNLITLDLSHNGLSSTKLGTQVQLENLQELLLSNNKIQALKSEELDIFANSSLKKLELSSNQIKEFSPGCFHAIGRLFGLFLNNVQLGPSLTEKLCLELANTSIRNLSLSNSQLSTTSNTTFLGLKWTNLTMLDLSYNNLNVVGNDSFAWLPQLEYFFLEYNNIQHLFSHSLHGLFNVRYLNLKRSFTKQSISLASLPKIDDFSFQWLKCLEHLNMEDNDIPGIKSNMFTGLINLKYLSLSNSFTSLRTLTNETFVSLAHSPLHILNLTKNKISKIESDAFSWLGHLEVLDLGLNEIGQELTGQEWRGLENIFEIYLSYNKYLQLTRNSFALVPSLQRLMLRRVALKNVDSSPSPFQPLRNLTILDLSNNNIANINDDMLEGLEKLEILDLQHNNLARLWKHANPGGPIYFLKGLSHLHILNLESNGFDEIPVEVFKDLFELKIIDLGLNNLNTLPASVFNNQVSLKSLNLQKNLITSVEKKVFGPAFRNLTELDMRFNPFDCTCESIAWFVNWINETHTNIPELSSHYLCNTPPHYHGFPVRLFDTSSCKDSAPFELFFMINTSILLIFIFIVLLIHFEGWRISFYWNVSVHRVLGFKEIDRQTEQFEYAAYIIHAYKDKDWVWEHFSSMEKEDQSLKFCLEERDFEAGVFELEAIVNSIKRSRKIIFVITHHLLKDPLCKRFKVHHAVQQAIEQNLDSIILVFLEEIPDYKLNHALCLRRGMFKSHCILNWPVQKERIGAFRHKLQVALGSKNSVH
Procedure: as §1, §2

TLR4 = target: T3, TLR4 (Homo sapiens, UniProt O00206); experiment: TLR4 antagonist screening, NF-κB-inducible SEAP reporter in HEK293 cells; assay type: cell-based; conditions: 10 μM; stimulated with LPS at 100 ng/ml
T3 construct: expressed in transfected cells; host or cells: HEK293
T3 sequence (O00206 24-839, species assumed): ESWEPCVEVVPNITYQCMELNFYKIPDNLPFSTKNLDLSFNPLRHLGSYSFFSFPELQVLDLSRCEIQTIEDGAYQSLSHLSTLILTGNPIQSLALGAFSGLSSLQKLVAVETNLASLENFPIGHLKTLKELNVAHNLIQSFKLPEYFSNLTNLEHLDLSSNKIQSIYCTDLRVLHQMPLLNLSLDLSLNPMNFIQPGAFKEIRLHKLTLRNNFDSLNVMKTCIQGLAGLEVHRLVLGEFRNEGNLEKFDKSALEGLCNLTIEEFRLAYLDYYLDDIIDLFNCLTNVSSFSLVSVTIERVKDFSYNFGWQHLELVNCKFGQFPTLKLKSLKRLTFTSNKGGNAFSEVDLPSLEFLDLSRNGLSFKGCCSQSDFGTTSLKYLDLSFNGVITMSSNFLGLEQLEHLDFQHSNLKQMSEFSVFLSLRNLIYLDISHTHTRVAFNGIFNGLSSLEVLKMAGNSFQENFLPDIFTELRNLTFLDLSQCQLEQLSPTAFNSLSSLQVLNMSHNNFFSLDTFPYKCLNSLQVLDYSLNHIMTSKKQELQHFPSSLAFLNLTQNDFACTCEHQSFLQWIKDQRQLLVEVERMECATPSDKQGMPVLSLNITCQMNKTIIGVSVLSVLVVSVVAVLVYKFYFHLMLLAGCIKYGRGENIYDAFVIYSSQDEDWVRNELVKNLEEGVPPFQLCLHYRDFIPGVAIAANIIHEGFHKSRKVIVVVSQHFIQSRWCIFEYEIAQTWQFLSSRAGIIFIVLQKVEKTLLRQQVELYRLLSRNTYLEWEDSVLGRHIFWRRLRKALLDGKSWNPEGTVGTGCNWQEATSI
T3 sequence (Q9Y6Y9 17-160 partner limits assumed, species assumed): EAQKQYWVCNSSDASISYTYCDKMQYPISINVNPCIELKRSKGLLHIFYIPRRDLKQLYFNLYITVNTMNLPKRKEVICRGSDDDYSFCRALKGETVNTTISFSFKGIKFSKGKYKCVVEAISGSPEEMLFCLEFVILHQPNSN
Procedure: as §1, §2

TLR5 = target: T4, TLR5 (Homo sapiens, UniProt O60602); experiment: TLR5 antagonist screening, NF-κB-inducible SEAP reporter in HEK293 cells; assay type: cell-based; conditions: 10 μM; stimulated with Flagellin at 100 ng/ml
T4 construct: expressed in transfected cells; host or cells: HEK293
T4 sequence (O60602 21-858, species assumed): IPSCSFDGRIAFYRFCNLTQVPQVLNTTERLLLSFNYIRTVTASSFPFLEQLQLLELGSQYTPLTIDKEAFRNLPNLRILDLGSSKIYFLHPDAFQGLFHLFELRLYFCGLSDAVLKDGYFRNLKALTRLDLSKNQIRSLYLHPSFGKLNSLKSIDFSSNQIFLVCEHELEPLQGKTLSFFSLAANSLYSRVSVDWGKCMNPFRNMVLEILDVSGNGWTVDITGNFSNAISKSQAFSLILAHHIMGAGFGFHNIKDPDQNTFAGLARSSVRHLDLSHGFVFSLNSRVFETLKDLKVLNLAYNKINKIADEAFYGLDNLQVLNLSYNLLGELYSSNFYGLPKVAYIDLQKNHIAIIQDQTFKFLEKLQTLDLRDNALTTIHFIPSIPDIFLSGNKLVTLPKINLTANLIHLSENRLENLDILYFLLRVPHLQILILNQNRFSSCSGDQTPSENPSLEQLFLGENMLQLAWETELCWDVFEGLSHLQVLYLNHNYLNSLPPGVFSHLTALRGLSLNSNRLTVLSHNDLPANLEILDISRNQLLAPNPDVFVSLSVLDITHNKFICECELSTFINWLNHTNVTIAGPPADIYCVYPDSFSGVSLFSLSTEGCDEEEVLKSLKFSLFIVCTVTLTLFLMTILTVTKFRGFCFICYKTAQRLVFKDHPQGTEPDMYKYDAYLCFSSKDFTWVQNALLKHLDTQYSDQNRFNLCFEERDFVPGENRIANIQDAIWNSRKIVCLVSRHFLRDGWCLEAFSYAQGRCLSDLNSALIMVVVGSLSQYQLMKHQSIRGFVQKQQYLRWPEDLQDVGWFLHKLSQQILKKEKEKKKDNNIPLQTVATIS
Procedure: as §1, §2

TLR9 [1] = target: T5, TLR9 (Homo sapiens, UniProt Q9NR96); experiment: TLR9 antagonist screening, NF-κB-inducible SEAP reporter in HEK293 cells; assay type: cell-based; conditions: 10 μM; stimulated with CpG ODN 2006 at 100 ng/ml
T5 construct: expressed in transfected cells; host or cells: HEK293
T5 sequence (Q9NR96 26-1032): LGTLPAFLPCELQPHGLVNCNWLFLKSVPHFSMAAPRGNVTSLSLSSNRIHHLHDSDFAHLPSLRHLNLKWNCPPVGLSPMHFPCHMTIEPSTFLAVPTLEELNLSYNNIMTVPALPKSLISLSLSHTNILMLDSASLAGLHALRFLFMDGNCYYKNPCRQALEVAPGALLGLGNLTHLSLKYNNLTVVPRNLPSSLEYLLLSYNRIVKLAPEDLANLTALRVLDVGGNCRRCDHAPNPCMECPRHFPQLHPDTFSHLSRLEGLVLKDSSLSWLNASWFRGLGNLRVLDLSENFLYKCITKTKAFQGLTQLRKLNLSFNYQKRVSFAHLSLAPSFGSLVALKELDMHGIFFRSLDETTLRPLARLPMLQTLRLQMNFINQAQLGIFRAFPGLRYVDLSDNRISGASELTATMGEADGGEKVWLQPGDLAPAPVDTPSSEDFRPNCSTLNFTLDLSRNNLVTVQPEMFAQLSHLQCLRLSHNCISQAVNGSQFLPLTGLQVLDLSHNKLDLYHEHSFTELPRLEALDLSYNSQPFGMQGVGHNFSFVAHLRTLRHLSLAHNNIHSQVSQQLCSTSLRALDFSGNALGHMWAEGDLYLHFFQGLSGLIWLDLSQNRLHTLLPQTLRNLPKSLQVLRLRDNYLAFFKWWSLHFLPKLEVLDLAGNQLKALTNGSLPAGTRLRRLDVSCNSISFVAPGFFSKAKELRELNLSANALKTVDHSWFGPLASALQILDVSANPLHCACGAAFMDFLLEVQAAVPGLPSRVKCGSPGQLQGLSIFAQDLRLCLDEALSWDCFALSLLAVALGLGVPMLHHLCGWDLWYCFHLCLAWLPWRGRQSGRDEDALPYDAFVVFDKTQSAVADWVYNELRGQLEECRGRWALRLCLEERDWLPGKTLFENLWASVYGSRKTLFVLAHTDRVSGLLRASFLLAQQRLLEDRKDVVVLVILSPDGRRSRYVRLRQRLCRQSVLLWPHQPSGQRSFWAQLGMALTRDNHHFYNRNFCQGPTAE
Procedure: as §1, §2

[2] = test system: chronic constriction injury (CCI) neuropathic pain model; experiment: Mechanical allodynia (Von Frey) in chronic constriction injury (Bennett) model, Example 3; assay type: in vivo, rat; conditions: Day 14 post-surgery, 30 and 90 min post-dosing, vs vehicle
Text: Neuropathic pain affects approximately 1% of the U.S. population and is extremely difficult to manage. Usually the pain is chronic, severe, and fails to respond to traditional analgesic drugs. Fortunately, one of the most widely used animal models for neuropathic pain closely mimics the pain endured by patients. In this model, termed the chronic constriction injury (CCI) or Bennett model, four closely spaced ligatures tied loosely around the sciatic nerve of a rat cause demyelination of the nerve, resulting in spontaneous pain, such as prolonged paw elevation and licking of the ligated paw. Induced pain in the nerve-injured limb can be measured using Von Frey filaments, applied to the plantar surface of the paw to test for responses to non-noxious tactile stimulation. The onset of this heightened mechanical allodynia is quite rapid and it persists for 2-3 months.
In this example, the CCI ligation was performed on the left sciatic nerve in three groups of rats. Von Frey testing of mechanical allodynia was performed on both paws on Day 14 to determine the analgesic efficacy of the test agent. The testing was performed pre-dosing, and at 30 and 90 minutes post-dosing.
The animals were allocated to treatment groups based on their baseline Von Frey data, measured prior to surgery. The mechanical allodynia scores for each group were reviewed to ensure that the mean values and standard deviation satisfied the assumption of homogeneity. Thirty-one (31) animals were used on the study. Thirty (30) animals were initially allocated to treatment groups, and the remaining […] animals were held as spares. One spare was then used to replace an animal that died during surgery. Body weights were taken one day after arrival, prior to surgery and weekly thereafter. On Day 14, after the final behavioral testing, the animals were euthanized by carbon dioxide asphyxiation. No necropsy was performed nor tissues collected.
All surgeries were performed under aseptic conditions. Prior to surgery, the rats were sedated using inhaled Isoflurane anesthetic. The left leg was shaved and prepped. The common sciatic nerve was exposed and freed from adherent tissue at mid-thigh by separating the muscle (biceps femoris) by blunt dissection. Proximal to the sciatic nerve's trifurcation; approximately 7 mm of nerve was freed from the adhering tissue. Four ligatures, approximately 1 mm apart, were tied loosely around the nerve using 6.0 chromic catgut. Each of the sutures was tied loosely with a square knot around the sciatic nerve. A brief twitch in the muscle surrounding the exposure was an indicator of the desired degree of constriction. The site was then closed using the appropriate suture material. Post-operative care and observations were carried out until the animal recovered consciousness.
The animals underwent a series of behavioral testing for neuropathic pain assessment. A Von Frey test of mechanical allodynia was performed on both hind paws prior to surgery to achieve a baseline measurement for randomization and then following surgery on Day 14 (test article efficacy) according to Table 4.
Twice prior to surgery, the animals were acclimated to the allodynia apparatus. This habituated the rats to the testing devices to familiarize them with the apparatus so they were calm at the time of testing. […] Animals were first habituated to the testing chamber so that they were calm enough for their pain threshold to be assessed. […]

TLR9 [3] = target: T5, TLR9; experiment: TLR9 screening of (+)-morphinan library, SEAP reporter in HEK293 cells expressing TLR9; assay type: cell-based; conditions: activator ODN2006; for OD 650 nm (mean ± sd): control (no activator) 0.14, activator 1.42 OD; for inhibition at 0.1 µM: HEK293, read-out: % Inhibition (mean), 100 nM; for inhibition at 10 µM: HEK293, read-out: % Inhibition (mean), 10 μM
Outline: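 HEK293 cells expressing TLR9 with an NF-κB-inducible SEAP reporter were preincubated with compound at 10 μM and 100 nM for 30 min at 37 °C, then stimulated with ODN2006. SEAP was read as OD 650 nm after 16-20 h, in triplicate.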

[4] = test system: APAP-induced liver toxicity; experiment: Acetaminophen (APAP)-induced hepatotoxicity model; assay type: in vivo, mouse; conditions: APAP 500 mg/Kg ip, 12 hours post-APAP
Procedure: For this, APAP-induced liver toxicity was induced in male C57BL/6 mice aged between 8-10 weeks by a single intraperitoneal (ip) injection of APAP in PBS at a dose of 500 mg/Kg (Imaeda et al. (2009) J. Clin. Invest. 119(2):305-314). The ability of (+)-morphinans to reduce liver toxicity was tested in the following groups:
The (+)-morphinan (or PBS) was either administered as a single subcutaneous (sc) or ip injection concurrent with the APAP injection or one hour prior to the APAP injection.
The mice were sacrificed 12 hours post-APAP treatment. Liver samples were stained with H&E and analyzed for signs of necrosis and hemorrhage. Histology scores were assigned using the standard rating scale. The levels of serum alanine transaminase (ALT) were also measured in each animal using a standard assay.

[5] = test system: Experimental Autoimmune Encephalomyelitis (EAE); conditions: for EAE clinical scores: bid for 20 days, Cmpd II-98 5 mg/kg sc, others 20 mg/kg sc, Prednisolone 4.5 mg/kg ip, vs vehicle control
[6] = Dissolution of compound in dosing vehicle (EAE study); assay type: physicochemical; conditions: 20 mg/kg in sterile dd H2O; delivered as a suspension
Text: It is not known whether the suspension dissolved adequately in the body to provide sufficient plasma concentration for efficacy.

T1 sequence (O60603 21-784, species assumed): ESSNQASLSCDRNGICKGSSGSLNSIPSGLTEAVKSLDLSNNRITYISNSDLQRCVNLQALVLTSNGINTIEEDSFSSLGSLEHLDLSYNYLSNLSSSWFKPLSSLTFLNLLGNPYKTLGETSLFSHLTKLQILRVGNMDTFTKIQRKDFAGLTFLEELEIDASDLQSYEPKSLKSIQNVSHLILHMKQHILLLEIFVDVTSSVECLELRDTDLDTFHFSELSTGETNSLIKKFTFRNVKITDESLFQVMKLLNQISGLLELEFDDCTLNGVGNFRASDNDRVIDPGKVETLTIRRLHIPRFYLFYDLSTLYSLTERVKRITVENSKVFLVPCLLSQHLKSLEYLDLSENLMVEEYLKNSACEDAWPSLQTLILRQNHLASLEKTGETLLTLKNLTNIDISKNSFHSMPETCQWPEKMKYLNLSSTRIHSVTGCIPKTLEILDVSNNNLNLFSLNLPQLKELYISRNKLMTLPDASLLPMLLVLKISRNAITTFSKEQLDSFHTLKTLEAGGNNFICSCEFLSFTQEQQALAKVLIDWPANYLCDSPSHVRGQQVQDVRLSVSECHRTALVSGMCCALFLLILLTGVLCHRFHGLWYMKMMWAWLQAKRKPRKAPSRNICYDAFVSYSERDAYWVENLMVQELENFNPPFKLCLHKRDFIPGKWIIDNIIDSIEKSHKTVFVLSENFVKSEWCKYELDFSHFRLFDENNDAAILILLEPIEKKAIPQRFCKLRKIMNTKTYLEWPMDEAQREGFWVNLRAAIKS

O=C1CC[C@]2(O)[C@@H]3Cc4ccc(O)c5c4[C@]2(CCN3CC2CC2)[C@@H]1O5 [(+)-Naltrexone, (+)-naltrexone]
Average % Inhibition at TLR2 (TLR2): 21%
Average % Inhibition at TLR3 (TLR3): 22%
Average % Inhibition at TLR4 (TLR4): 24%
Average % Inhibition at TLR5 (TLR5): 22%
Average % Inhibition at TLR9 (TLR9 [1]): 51%

NCC1(CC(=O)O)CCCCC1 [Gabapentin]
Mechanical allodynia (50% allodynia threshold), left (affected) paw ([2]; (+)-naloxone.HCl 66.7 mg/kg S.C., Gabapentin 100 mg/kg I.P.): effective at significantly reducing the allodynia
Mechanical allodynia (50% allodynia threshold), right (unaffected) paw [2]: higher threshold

COc1ccc2c3c1O[C@@H]1C(=O)CC[C@@H]4[C@H](C2)N(CC2CC2)CC[C@@]314 [II-24]
OD 650 nm (mean ± sd) (TLR9 [3]; 100 nM): 0.65 ± 0.04 OD
OD 650 nm (mean ± sd) (TLR9 [3]; 10 μM): 0.09 ± 0.01 OD
inhibition at 0.1 µM (TLR9 [3]): 54%
inhibition at 10 µM (TLR9 [3]): 94%
Protection from APAP-induced toxicity ([4]; test doses and timing per Table 6): None of compounds II-24, II-93, or III-2 provided any protection
Liver histology scores (necrosis and hemorrhage) ([4]; vs APAP alone): about the same as those only exposed to APAP
EAE clinical scores [5]: did not improve EAE

COC1=CC=C2[C@@H]3Cc4ccc(OC)c5c4[C@]2(CCN3)[C@@H]1O5 [II-38]
OD 650 nm (mean ± sd) (TLR9 [3]; 100 nM): 0.86 ± 0.01 OD
OD 650 nm (mean ± sd) (TLR9 [3]; 10 μM): 0.12 ± 0.01 OD
inhibition at 0.1 µM (TLR9 [3]): 40%
inhibition at 10 µM (TLR9 [3]): 92%
Dissolution in dosing vehicle [6]: did not dissolve into a solution
EAE clinical scores [5]: did not improve EAE

COC1=CCC2[C@@H]3Cc4ccc(OC)c5c4[C@]2(CCN3)[C@@H]1O5 (some centres unmarked) [II-98]
OD 650 nm (mean ± sd) (TLR9 [3]; 100 nM): 1.02 ± 0.02 OD
OD 650 nm (mean ± sd) (TLR9 [3]; 10 μM): 0.56 ± 0.03 OD
inhibition at 0.1 µM (TLR9 [3]): 28%
inhibition at 10 µM (TLR9 [3]): 60%
Acute toxicity ([5]; 20 mg/kg bid, subcutaneous): acute toxicity was observed

C[C@]12C=CC(=O)C=C1CC[C@@H]1[C@@H]2[C@@H](O)C[C@@]2(C)[C@H]1CC[C@]2(O)C(=O)CO [Prednisolone, reference compound]
EAE clinical scores [5]: significantly reduced EAE clinical scores
